Test results from patent publication US5041567A, “Antibacterial monic acid derivatives” (Beecham Group plc, priority 1982, dated 1991).
≈ marks a conversion by molar mass, not a printed value. Like-named read-outs stand apart in the source and are kept apart here.

How the values were obtained:
[1] = tested on: Staph. aureus 152 (pen. sens); assay: MIC against veterinary bacteria in vitro; conditions: Staphylococcus aureus, 18 h
Description: (§1) The activity of the compounds of the Examples against various veterinarily important bacteria, was assayed in vitro using two-fold serial dilutions in Diagnostic Sensitivity Test Agar inoculated with 10^4 organisms.

M. suipneumoniae MS 16 = assay: MIC against mycoplasma in vitro; format: cell-based; conditions: Mesomycoplasma hyopneumoniae, MS16, 144 h
M. suipneumoniae JF 435 = assay: MIC against mycoplasma in vitro; format: cell-based; conditions: Mesomycoplasma hyopneumoniae, JF435, 144 h
[2] = tested on: Pasteurella multocida 1633; assay: MIC against human bacteria in vitro; format: cell-based
E. coli E1 = assay: MIC against veterinary bacteria in vitro; conditions: Escherichia coli, E1, 18 h
Description: as §1

Staph. aureus W2827 = assay: MIC against human bacteria in vitro; format: cell-based; conditions: Staphylococcus aureus
[3] = tested on: Haemophilus influenzae Wy21; assay: MIC against human bacteria in vitro; format: cell-based; conditions: Haemophilus influenzae Wy21; 5% chocolated horse blood agar, 18 hours; read-out: MIC
S. typhimurium S18 = assay: MIC against veterinary bacteria in vitro; conditions: Salmonella enterica, TYPHIMURIUM, 18 h
Description: as §1

[4] = tested on: M. suipneumoniae NCTC 10110; assay: MIC against mycoplasma in vitro; format: cell-based; conditions: Mesomycoplasma hyopneumoniae, NCTC10110, 144 h
Staph. aureus Oxford = assay: MIC against veterinary bacteria in vitro; conditions: Staphylococcus aureus, 18 h
Description: as §1

Bord. bronchiseptica B08 = assay: MIC against veterinary bacteria in vitro; conditions: Bordetella bronchiseptica, B08, 18 h
Description: as §1

M. gallisepticum S6 = assay: MIC against mycoplasma in vitro; format: cell-based; conditions: Mycoplasmoides gallisepticum, 144 h; M. gallisepticum S6; 6 days, 37° C.; read-out: MIC
[5] = tested on: Erysipelothrix rhusiopathiae NCTC 8163; assay: MIC against veterinary bacteria in vitro; conditions: Erysipelothrix rhusiopathiae, NCTC8163, 18 h
Description: as §1

M. hyorhinis ATCC 23234 = assay: MIC against mycoplasma in vitro; format: cell-based; conditions: Mesomycoplasma hyorhinis, ATCC23234, 144 h
[6] = tested on: M. suipneumoniae ATCC 25095; assay: MIC against mycoplasma in vitro; format: cell-based; conditions: Mesomycoplasma hyopneumoniae, ATCC25095, 144 h
Staph. aureus Russell = assay: MIC against human bacteria in vitro; format: cell-based; conditions: Staphylococcus aureus
E. coli NCTC 10418 = assay: MIC against veterinary bacteria in vitro; conditions: Escherichia coli, NCTC10418, 18 h
Description: as §1

Strep. pneumoniae CN33 = assay: MIC against human bacteria in vitro; format: cell-based; conditions: Streptococcus pneumoniae; Strep. pneumoniae CN33; 5% chocolated horse blood agar, 18 hours; read-out: MIC
Strep. agalactiae 2788-B = assay: MIC against human bacteria in vitro; format: cell-based; conditions: Streptococcus agalactiae; Strep. agalactiae 2788-B; 5% chocolated horse blood agar, 18 hours; read-out: MIC
Strep. agalactiae SPA1 = assay: MIC against veterinary bacteria in vitro; conditions: Streptococcus agalactiae, SPA1, 18 h
Description: as §1

Past. multocida PA2 = assay: MIC against veterinary bacteria in vitro; conditions: Pasteurella multocida, PA2, 18 h
Description: as §1

Sarcina lutea 8340 = assay: MIC against human bacteria in vitro; format: cell-based; conditions: Micrococcus luteus; Sarcina lutea 8340; 5% chocolated horse blood agar, 18 hours; read-out: MIC
[7] = tested on: Strep. suis (group D) SPS11; assay: MIC against veterinary bacteria in vitro; conditions: Streptococcus suis, 18 h
Description: as §1

[8] = tested on: Ps. aeruginosa NCTC 10662; assay: MIC against human bacteria in vitro; format: cell-based; conditions: Pseudomonas aeruginosa, NCTC10662; Ps. aeruginosa NCTC 10662; 5% chocolated horse blood agar, 18 hours; read-out: MIC
E. coli ESS = assay: MIC against human bacteria in vitro; format: cell-based; conditions: Escherichia coli; E. coli ESS; 5% chocolated horse blood agar, 18 hours; read-out: MIC
M. suipneumoniae UCD 1 = assay: MIC against mycoplasma in vitro; format: cell-based; conditions: Mesomycoplasma hyopneumoniae, UCD1, 144 h
[9] = tested on: M. bovigenitalium ATCC 14173; assay: MIC against mycoplasma in vitro; format: cell-based; conditions: 144 h
M. suipneumoniae TAM 6N = assay: MIC against mycoplasma in vitro; format: cell-based; conditions: Mesomycoplasma hyopneumoniae, TAM6N, 144 h; M. suipneumoniae TAM 6N; 6 days, 37° C.; read-out: MIC
M. pneumoniae ATCC 15492 = assay: MIC against mycoplasma in vitro; format: cell-based; conditions: Mycoplasmoides pneumoniae, ATCC15492, 144 h
S. dublin S7 = assay: MIC against veterinary bacteria in vitro; conditions: Salmonella enterica, S7, 18 h
Description: as §1

M. suipneumoniae NB12 = assay: MIC against mycoplasma in vitro; format: cell-based; conditions: Mesomycoplasma hyopneumoniae
Bord. bronchiseptica B09 = assay: MIC against veterinary bacteria in vitro; conditions: Bordetella bronchiseptica, B09, 18 h
Description: as §1

M. suipneumoniae HK(2) = assay: MIC against mycoplasma in vitro; format: cell-based; conditions: Mesomycoplasma hyopneumoniae, 144 h
Strep. spp. 64/848-C = assay: MIC against human bacteria in vitro; format: cell-based; conditions: Strep. spp. 64/848-C; 5% chocolated horse blood agar, 18 hours; read-out: MIC
[10] = M. suipneumoniae MS 16, 6 days, 37° C., read-out: MIC
[11] = M. suipneumoniae JF 435, 6 days, 37° C., read-out: MIC
[12] = M. hyorhinis ATCC 23234, 6 days, 37° C., read-out: MIC
[13] = M. suipneumoniae ATCC 25095, 6 days, 37° C., read-out: MIC
[14] = Pasteurella multocida 1633, 5% chocolated horse blood agar, 18 hours, read-out: MIC
[15] = Staph. aureus W2827, 5% chocolated horse blood agar, 18 hours, read-out: MIC
[16] = Staph. aureus Russell, 5% chocolated horse blood agar, 18 hours, read-out: MIC
[17] = M. pneumoniae ATCC 15492, 6 days, 37° C., read-out: MIC

SMILES | MIC [1] | MIC (E. coli E1) | MIC [3] | MIC (S. typhimurium S18) | MIC (Staph. aureus Oxford) | MIC (Bord. bronchiseptica B08) | MIC (M. gallisepticum S6) | MIC [5] | MIC (E. coli NCTC 10418) | MIC (Strep. agalactiae 2788-B) | MIC (Strep. agalactiae SPA1) | MIC (Past. multocida PA2) | MIC (Sarcina lutea 8340) | MIC [7] | MIC [8] | MIC (E. coli ESS) | MIC [9] | MIC (M. suipneumoniae TAM 6N) | MIC (S. dublin S7) | MIC (Bord. bronchiseptica B09) | also measured
C/C(=C\c1ncc(-c2cccc(C#N)c2)o1)C[C@@H]1OC[C@H](C[C@@H]2O[C@H]2[C@@H](C)[C@H](C)O)[C@@H](O)[C@H]1O [Example 5, 5-m-cyanophenyl-2-(1-normon-2-yl)oxazole A] | 0.625 µg/mL (≈ 1.33 µM) | > 80 µg/mL | 1.2 µg/mL (≈ 2.56 µM) | > 80 µg/mL | 0.625 µg/mL (≈ 1.33 µM) | 80 µg/mL (≈ 171 µM) | 0.5 µg/mL (≈ 1.07 µM) | 80 µg/mL (≈ 171 µM) | > 80 µg/mL | 2.5 µg/mL (≈ 5.34 µM) | 0.625 µg/mL (≈ 1.33 µM) | 2.5 µg/mL (≈ 5.34 µM) | > 50 µg/mL | 10 µg/mL (≈ 21.3 µM) | > 50 µg/mL | 1.2 µg/mL (≈ 2.56 µM) | 0.025 µg/mL (≈ 0.0534 µM) | 0.1 µg/mL (≈ 0.213 µM) | > 80 µg/mL | 40 µg/mL (≈ 85.4 µM) | MIC (M. suipneumoniae MS 16; [10]): 0.05 µg/mL (≈ 0.107 µM); MIC (M. suipneumoniae JF 435; [11]): 0.1 µg/mL (≈ 0.213 µM); MIC ([2]; Pasteurella multocida, 1633, 18 h): 5 µg/mL (≈ 10.7 µM); MIC (Staph. aureus W2827; W2827, 18 h): 5 µg/mL (≈ 10.7 µM); MIC [4]: 0.1 µg/mL (≈ 0.213 µM); MIC (M. hyorhinis ATCC 23234; [12]): 0.05 µg/mL (≈ 0.107 µM); MIC [6, 13]: 0.05 µg/mL (≈ 0.107 µM); MIC (Staph. aureus Russell; 18 h): 5 µg/mL (≈ 10.7 µM); MIC (Strep. pneumoniae CN33): 2.5 µg/mL (≈ 5.34 µM); MIC (M. suipneumoniae UCD 1): 0.1 µg/mL (≈ 0.213 µM); MIC (M. pneumoniae ATCC 15492): 0.25 µg/mL (≈ 0.534 µM); MIC (M. suipneumoniae NB12; 144 h, M. suipneumoniae NB12, Friis broth, 0.9% agarose, 6 days, 37° C., read-out: MIC): 0.05 µg/mL (≈ 0.107 µM)
C/C(=C\c1ncc(-c2cccc([N+](=O)[O-])c2)o1)C[C@@H]1OC[C@H](C[C@@H]2O[C@H]2[C@@H](C)[C@H](C)O)[C@@H](O)[C@H]1O [Example 6, 5-m-nitrophenyl-2-(1-normon-2-yl)oxazole A] | – | > 80 µg/mL | 2 µg/mL (≈ 4.09 µM) | > 80 µg/mL | 1.25 µg/mL (≈ 2.56 µM) | 80 µg/mL (≈ 164 µM) | 1 µg/mL (≈ 2.05 µM) | > 80 µg/mL | > 80 µg/mL | 4 µg/mL (≈ 8.19 µM) | 2.5 µg/mL (≈ 5.12 µM) | 1.25 µg/mL (≈ 2.56 µM) | > 128 µg/mL | 10 µg/mL (≈ 20.5 µM) | > 128 µg/mL | 16 µg/mL (≈ 32.8 µM) | 0.05 µg/mL (≈ 0.102 µM) | 0.1 µg/mL (≈ 0.205 µM) | > 80 µg/mL | 20 µg/mL (≈ 40.9 µM) | MIC (M. suipneumoniae MS 16): 0.025 µg/mL (≈ 0.0512 µM); MIC (M. suipneumoniae JF 435): 0.05 µg/mL (≈ 0.102 µM); MIC [2, 14]: 16 µg/mL (≈ 32.8 µM); MIC (Staph. aureus W2827; [15]): 16 µg/mL (≈ 32.8 µM); MIC [4]: 0.05 µg/mL (≈ 0.102 µM); MIC (M. hyorhinis ATCC 23234): 0.025 µg/mL (≈ 0.0512 µM); MIC (M. suipneumoniae HK(2)): 0.05 µg/mL (≈ 0.102 µM); MIC [6]: 0.05 µg/mL (≈ 0.102 µM); MIC (Staph. aureus Russell; [16]): 16 µg/mL (≈ 32.8 µM); MIC (Strep. pneumoniae CN33): 4 µg/mL (≈ 8.19 µM); MIC (M. suipneumoniae UCD 1): 0.05 µg/mL (≈ 0.102 µM); MIC (M. pneumoniae ATCC 15492; [17]): 1 µg/mL (≈ 2.05 µM); MIC (M. suipneumoniae NB12; NB12, 144 h): 0.05 µg/mL (≈ 0.102 µM)
C/C(=C\c1ncc(Cc2ccccc2)o1)C[C@@H]1OC[C@H](C[C@@H]2O[C@H]2[C@@H](C)[C@H](C)O)[C@@H](O)[C@H]1O [Example 27, 5-Benzyl-2-(1-normon-2-yl)oxazole A] | 10 µg/mL (≈ 21.9 µM) | > 80 µg/mL | 2 µg/mL (≈ 4.37 µM) | > 80 µg/mL | 10 µg/mL (≈ 21.9 µM) | > 80 µg/mL | > 10 µg/mL | > 80 µg/mL | > 80 µg/mL | 16 µg/mL (≈ 35 µM) | 20 µg/mL (≈ 43.7 µM) | 5 µg/mL (≈ 10.9 µM) | > 64 µg/mL | > 80 µg/mL | > 64 µg/mL | 16 µg/mL (≈ 35 µM) | 0.25 µg/mL (≈ 0.546 µM) | 10 µg/mL (≈ 21.9 µM) | > 80 µg/mL | 80 µg/mL (≈ 175 µM) | MIC (M. suipneumoniae MS 16; [10]): 5 µg/mL (≈ 10.9 µM); MIC (M. suipneumoniae JF 435; [11]): 10 µg/mL (≈ 21.9 µM); MIC [2, 14]: 32 µg/mL (≈ 69.9 µM); MIC (Staph. aureus W2827; [15]): 16 µg/mL (≈ 35 µM); MIC (Strep. spp. 64/848-C): 16 µg/mL (≈ 35 µM); MIC ([4]; M. suipneumoniae NCTC 10110, 6 days, 37° C., read-out: MIC): 10 µg/mL (≈ 21.9 µM); MIC (M. hyorhinis ATCC 23234; [12]): 10 µg/mL (≈ 21.9 µM); MIC (M. suipneumoniae HK(2); M. suipneumoniae HK(2), 6 days, 37° C., read-out: MIC): 10 µg/mL (≈ 21.9 µM); MIC [6, 13]: 5 µg/mL (≈ 10.9 µM); MIC (Staph. aureus Russell; [16]): 16 µg/mL (≈ 35 µM); MIC (M. suipneumoniae UCD 1; M. suipneumoniae UCD 1, 6 days, 37° C., read-out: MIC): 10 µg/mL (≈ 21.9 µM); MIC (M. pneumoniae ATCC 15492; [17]): 10 µg/mL (≈ 21.9 µM); MIC (M. suipneumoniae NB12; NB12, 144 h): 5 µg/mL (≈ 10.9 µM)
